Laboratory results: paper PMC11596610 (Molecules, 2024)
Like-named read-outs stand apart in the source and are kept apart here.

Assays:
[1] = tested on: P. falciparum strain NF54; assay: [3H]-hypoxanthine incorporation assay, antiplasmodial activity; assay type: cell-based; conditions: Plasmodium falciparum
Description: Compounds were dissolved in DMSO at 10 mM, serial dilutions prepared in hypoxanthine-free culture medium (7-step dilution series; 2-fold serial dilutions) and 100 μL aliquots were dispensed in duplicates into 96-well cell culture plates. […] After incubation for 48 h, 0.25 μCi of [^3H]-hypoxanthine was added per well and plates were incubated for an additional 24 h. Parasites were harvested onto glass-fiber filters using a Microbeta FilterMate cell harvester (Perkin Elmer, Waltham, MA, USA) and radioactivity was counted using a MicroBeta2 liquid scintillation counter (Perkin Elmer, Waltham, MA, USA).

[2] = Cytotoxicity assay with the rat L6 cell line (resazurin); assay type: cell-based
Description: Cultures were maintained at 37 °C in an atmosphere of 5% CO2. […] Plates were incubated at 37 °C under a 5% CO2 atmosphere for 24 h. After that, compounds were dissolved in DMSO (10 mM or 10 mg/mL), serial drug dilutions of eleven 3-fold dilution steps covering a range from 100 to 0.002 μg/mL or 100 to 0.002 µM were prepared, and the plates incubated at 37 °C under 5% CO2 for 70 h. […] The results were expressed as percentage of the untreated controls. Fifty percent inhibitory concentrations (IC50) were estimated by linear interpolation.

[3] = tested on: S. mansoni newly transformed schistosomula (NTS); assay: Drug assay against S. mansoni NTS; assay type: cell-based, Schistosoma mansoni; conditions: for IC50: Schistosoma mansoni
Text: Harvested S. mansoni cercariae (Liberian strain) obtained from infected Biomphalaria glabrata snails were mechanically transformed into newly transformed schistosomula (NTS) following standard procedures as described. Artesunate and praziquantel were previously tested in the drug assay against S. mansoni NTS [39]. […] Culture medium was composed of M199 medium (Gibco, Waltham MA, USA) supplemented with 5% Horse Serum (Gibco, Waltham MA, USA), 1% penicillin/streptomycin mixture (Invitrogen, Carlsbad, CA, USA, 100 U/mL) and 1% Mäser Mix. Each compound was tested in triplicate. NTS incubated with no more than 1% DMSO served as control. NTS were kept in the incubator at 37 °C and 5% CO2 for up to 72 h. After 24, 48 and 72 h, the condition of the NTS was microscopically evaluated.

S. mansoni adult worms = assay: Drug assay against ex vivo S. mansoni adult worms; assay type: cell-based, Schistosoma mansoni; conditions: for IC50: Schistosoma mansoni
Description: Female NMRI mice (age 3 weeks, weight ca. 14–20 g) were purchased from Charles River (Sulzfeld, Germany). […] To obtain adult schistosomes, NMRI mice were infected subcutaneously with 80 to 100 cercariae. After 49 days, the mice were euthanized with CO2 and the worms collected from the hepatic portal and mesenteric veins. […] Each compound was tested in duplicate. Artesunate and praziquantel were previously tested in the drug assay against S. mansoni adult worms. Schistosomes incubation with no more than 1% DMSO served as control. Worms were kept in an incubator at 37 °C and 5% CO2 for up to 72 h. After 24, 48 and 72 h, the condition of the worms was microscopically evaluated and scored as described above.

S. mansoni = assay: Drug assay in vivo in S. mansoni-infected mice; parameters: species or system mice (NMRI); conditions: single oral dose 200 mg/kg
Description: The in vivo study was carried out in accordance with Swiss national and cantonal regulations on animal welfare under the permission number 545. Female mice (NMRI strain; 3-week-old; weight ca. 20–22 g) were purchased from Charles River, Germany. Rodents were kept under environmentally controlled conditions (temperature ~25 °C; humidity ~70%; 12 h light, 12 h dark cycle) with free access to water and rodent diet, and acclimatized for one week before infection. […]. Untreated mice (n = 4) served as controls in all experiments. Two weeks post-treatment mice were dissected and all worms counted. Worm burden reductions were calculated.

[4] = P. falciparum NF54, 3H-hypoxanthine incorporation, mean of 2 independent determinations, read-out: NF54 IC50

Row | SMILES | IC50 [1, 4] | CC50 at 70 h ([2]; rat) | IC50 ([3]; 24 h) | IC50 ([3]; 48 h) | IC50 ([3]; 72 h) | Effect in % ± SD ([3]; test conc. 1 µM, 24 h) | Effect in % ± SD ([3]; test conc. 1 µM, 48 h) | Effect in % ± SD ([3]; test conc. 1 µM, 72 h) | Effect in % ± SD ([3]; test conc. 10 µM, 24 h) | Effect in % ± SD ([3]; test conc. 10 µM, 48 h) | Effect in % ± SD ([3]; test conc. 10 µM, 72 h) | IC50 (S. mansoni adult worms; 24 h) | IC50 (S. mansoni adult worms; 48 h) | IC50 (S. mansoni adult worms; 72 h) | Effect in % ± SD (S. mansoni adult worms; test conc. 10 µM, 24 h) | Effect in % ± SD (S. mansoni adult worms; test conc. 10 µM, 48 h) | Effect in % ± SD (S. mansoni adult worms; test conc. 10 µM, 72 h) | Effect in % ± SD (S. mansoni adult worms; test conc. 25 µM, 24 h) | Effect in % ± SD (S. mansoni adult worms; test conc. 25 µM, 48 h) | Effect in % ± SD (S. mansoni adult worms; test conc. 25 µM, 72 h) | further results
1 | CC1=C(Cc2ccc(C(F)(F)F)cc2)C(=O)C2(C)CC=CC=C2C1=O (racemic) [Product 1, (±)-2,4a-dimethyl-3-(4-(trifluoromethyl)benzyl)-4a,5-dihydronaphthalene-1,4-dione] | 1850 ± 458 nM | 22500 nM | 2700 nM | 2400 nM | 2000 nM | 18.87 ± 1.9% | 26.42 ± 1.9% | 28.57 ± 2% | 34.59 ± 1.3% | 35.35 ± 0.7% | 71.70 ± 9.4% | 800 nM | 200 nM | 600 nM | 53.7 ± 0.9% | 65.65 ± 3.1% | 66.7 ± 2.1% | 70.4 ± 3.7% | 73.15 ± 2.8% | 88.9 ± 0% | Effect in % ± SD ([3]; test conc. 25 µM, 24 h): 100 ± 0%; Effect in % ± SD ([3]; test conc. 25 µM, 48 h): 100 ± 0%; Effect in % ± SD ([3]; test conc. 25 µM, 72 h): 100 ± 0%; Effect in % ± SD (S. mansoni adult worms; test conc. 1 µM, 24 h): 53.3 ± 0%; Effect in % ± SD (S. mansoni adult worms; test conc. 1 µM, 48 h): 58.3 ± 0%; Effect in % ± SD (S. mansoni adult worms; test conc. 1 µM, 72 h): 59.15 ± 0.8%; Total WBR (worm burden reduction) (S. mansoni): 15.7%; Cures (S. mansoni; cured/treated): 0/4; Mean Number of Worms (SD) Females (S. mansoni; two weeks post-treatment): 10.8 (1.0); Mean Number of Worms (SD) Liver (S. mansoni; two weeks post-treatment): 0; Mean Number of Worms (SD) Mesenteric Veins (S. mansoni; two weeks post-treatment): 21.5 (1.9); Mean Number of Worms (SD) Total (S. mansoni; two weeks post-treatment): 21.5 (1.9)
2 | CC1=C(Cc2ccc(C(F)(F)F)cc2)C(=O)C2=CC=CCC2(C)C1=O (racemic) [Product 2, (±)-3,4a-dimethyl-2-(4-(trifluoromethyl)benzyl)-4a,5-dihydronaphthalene-1,4-dione] | 2390 ± 825 nM | 25600 nM | 17400 nM | 8500 nM | 1700 nM | 20.75 ± 0% | 32.08 ± 0% | 36.73 ± 2% | 34.52 ± 6.2% | 51.43 ± 8.6% | 86.79 ± 1.9% | 22700 nM | 17300 nM | 15200 nM | 42.75 ± 1% | 48.05 ± 2.9% | 50 ± 0% | 44.4 ± 0% | 49.05 ± 0.9% | 51.9 ± 0% | –
3 | CCN(CC)CCCC(C)Nc1ccnc2cc(Cl)ccc12 (stereo not shown) [CQ diphosphate, Chloroquine diphosphate, reference compound] | – | – | – | – | – | – | – | – | – | – | – | – | – | – | – | – | – | – | – | – | IC50 ([1]; NF54, read-out: NF54 IC50): 4 ng/mL
4 | COc1cc([C@@H]2c3cc4c(cc3[C@H](O)[C@H]3COC(=O)[C@H]23)OCO4)cc(OC)c1OC [Podophyllotoxin, podophyllotoxin, reference compound] | – | – | – | – | – | – | – | – | – | – | – | – | – | – | – | – | – | – | – | – | CC50 at 70 h ([2]; rat L6 cells, 70 h incubation, resazurin, read-out: L6 CC50): 10 nM
5 | C[C@H]1[C@H](OC(=O)CCC(=O)O)O[C@@H]2O[C@@]3(C)CC[C@H]4[C@H](C)CC[C@@H]1[C@@]24OO3 [artesunate, reference compound] | – | – | – | – | – | – | – | – | – | – | – | – | – | – | – | – | – | – | – | – | IC50 ([1]; P. falciparum NF54, reference compounds, values printed in ng/mL, read-out: NF54 IC50): 1.52 ng/mL
